According to patent US6399561B1, “Methods and compositions for bleaching a dye in solution” (Novozymes A/S, priority 1998, dated 2002):

Tests used:
Format in all cases: biochemical
[1] = tested on: Recombinant Coprinus cinereus laccase (rCcL); assay: Bleaching of methyl orange using rCcL and NOH-type enhancing agents (initial bleaching rate); settings: rCcL solution diluted 1:200, 0.2 mM mediator, 30° C., large negative numbers = best performance
Description: (§1) Britton-Robinson buffer is composed of:
(§2) Methyl orange (Merck, Germany)
(§3) Reactions were started by addition of enzyme. Absorbance at 464 nm was followed for 3 minutes (readings every 5 seconds) on a Cobas Fara at 30° C. Initial bleaching rates were determined from the first linear part of the progress curves.
(§4) The N—OH compounds listed above were tested as laccase mediators in bleaching of methyl orange with three recombinant laccases (rPpL, rMtL and rCcL) at various pH values. Large negative numbers represent the best performance.

[2] = biological target: T1, Polyporus pinsitus laccase (Trametes villosa, UniProt Q99044); assay: Bleaching of methyl orange using rPpL and NOH-type enhancing agents (initial bleaching rate); settings: rPpL solution diluted 1:200, 0.2 mM mediator, 30° C., large negative numbers = best performance
T1 construct: made in house
T1 sequence (Q99044 22-520): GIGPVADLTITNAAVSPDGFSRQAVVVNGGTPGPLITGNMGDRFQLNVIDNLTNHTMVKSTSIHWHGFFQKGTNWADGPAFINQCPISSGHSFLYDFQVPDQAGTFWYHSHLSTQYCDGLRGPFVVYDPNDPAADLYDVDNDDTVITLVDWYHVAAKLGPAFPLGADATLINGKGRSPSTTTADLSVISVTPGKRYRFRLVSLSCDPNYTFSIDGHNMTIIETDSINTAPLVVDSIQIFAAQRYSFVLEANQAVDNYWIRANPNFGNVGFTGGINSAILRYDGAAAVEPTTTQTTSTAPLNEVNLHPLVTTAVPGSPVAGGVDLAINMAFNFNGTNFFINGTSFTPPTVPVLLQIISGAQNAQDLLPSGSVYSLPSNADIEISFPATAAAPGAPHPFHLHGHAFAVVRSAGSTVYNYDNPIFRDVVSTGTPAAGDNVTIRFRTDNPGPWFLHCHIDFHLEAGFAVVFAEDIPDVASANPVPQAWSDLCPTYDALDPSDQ
Description: as §1, §2, §3, §4

[3] = tested on: Recombinant Myceliophthora thermophila laccase (rMtL); assay: Bleaching of methyl orange using rMtL and NOH-type enhancing agents (initial bleaching rate); settings: rMtL solution diluted 1:300, 0.2 mM mediator, 30° C., large negative numbers = best performance
Description: as §1, §2, §3, §4

| Structure (SMILES) | Initial changes per minute in A464 nm of methyl orange using rCcL ([1]; pH 4) [per minute] | Initial changes per minute in A464 nm of methyl orange using rCcL ([1]; pH 5) [per minute] | Initial changes per minute in A464 nm of methyl orange using rCcL ([1]; pH 6) [per minute] | Initial changes per minute in A464 nm of methyl orange using rCcL ([1]; pH 7) [per minute] | Initial changes per minute in A464 nm of methyl orange using rCcL ([1]; pH 8) [per minute] | Initial changes per minute in A464 nm of methyl orange using rPpL ([2]; pH 4) [per minute] | Initial changes per minute in A464 nm of methyl orange using rPpL ([2]; pH 5) [per minute] | Initial changes per minute in A464 nm of methyl orange using rPpL ([2]; pH 6) [per minute] | Initial changes per minute in A464 nm of methyl orange using rPpL ([2]; pH 7) [per minute] | Initial changes per minute in A464 nm of methyl orange using rMtL ([3]; pH 4) [per minute] | Initial changes per minute in A464 nm of methyl orange using rMtL ([3]; pH 5) [per minute] | Initial changes per minute in A464 nm of methyl orange using rMtL ([3]; pH 6) [per minute] | Initial changes per minute in A464 nm of methyl orange using rMtL ([3]; pH 7) [per minute] |
| --- | --- | --- | --- | --- | --- | --- | --- | --- | --- | --- | --- | --- | --- |
| On1nnc2ccccc21 [1-hydroxybenzotriazole, 1-Hydroxybenzotriazole] | −0.016 | −0.018 | −0.019 | −0.017 | −0.005 | −0.206 | −0.077 | −0.017 | −0.005 | −0.050 | −0.019 | −0.007 | −0.002 |
| CC[n+]1ccc(-c2ccc(S(=O)(=O)[O-])cc2)o1.O [2-Ethyl-5-phenylisoxazolium-4′-sulfonate, H2O] | 0.005 | 0.000 | −0.006 | −0.004 | −0.001 | −0.017 | −0.017 | −0.006 | 0.001 | −0.012 | −0.004 | −0.002 | 0.000 |
| O=c1c2ccccc2nnn1O [3-hydroxy-1,2,3-benzotriazin-4(3H)-one, 3-Hydroxy-1,2,3-benzotriazin-4(3H)-one] | 0.004 | −0.004 | −0.011 | −0.008 | −0.002 | −0.020 | −0.020 | −0.008 | 0.000 | −0.016 | −0.011 | −0.001 | 0.002 |
| O=c1[nH]c(=O)[nH]c(=O)[nH]1 [Cyanuric acid] | −0.005 | −0.008 | −0.012 | −0.012 | −0.005 | −0.037 | −0.022 | −0.011 | −0.002 | −0.013 | 0.010 | −0.002 | 0.000 |
| [O-][n+]1ccc2ccccc2c1 [Iso-quinoline-N-oxide] | −0.002 | −0.005 | −0.008 | −0.010 | −0.004 | −0.074 | −0.037 | −0.014 | −0.002 | −0.017 | −0.010 | −0.004 | 0.000 |
| O=C(c1ccccc1)N(O)c1ccccc1 [N-benzoyl-N-phenylhydroxylamine, N-Benzoyl-N-phenylhydroxylamine] | −0.163 | −0.247 | −0.529 | −0.592 | −0.124 | −0.732 | −1.402 | −0.420 | −0.012 | −0.269 | −0.296 | −0.082 | −0.012 |
| O=C1c2ccccc2C(=O)N1O [N-hydroxyphthalimide] | −0.006 | −0.007 | −0.014 | −0.011 | −0.004 | −0.050 | −0.035 | −0.011 | −0.001 | −0.019 | −0.016 | −0.005 | 0.000 |
| CS(=O)(=O)c1ccc2ccn(OC(=O)c3ccccc3)c2c1 [PFC-202, Benzoic acid[6-(methylsulphonyl)indol-1-yl]ester] | −0.005 | −0.010 | −0.016 | 0.000 | 0.011 | −0.047 | −0.035 | −0.001 | 0.000 | −0.020 | −0.017 | 0.001 | 0.005 |
